# Results published in patent US7338968B2, “Thiadiazoles AS CXC- and CC- chemokine receptor ligands” (Schering Corporation, priority 2003, dated 2008).
# How the values were obtained:
# [1] = molecular target: T1, hCXCR1 (Homo sapiens, UniProt P25024); assay: CXCR1 SPA assay ([125I]-IL-8 binding, hCXCR1-CHO membranes; incl. alternative Biosignal Packard and Euroscreen protocols)
# T1 construct: purchased Biosignal / Biosignal Packard; alternatively Euroscreen; host or cells: CHO cells (membranes)
# T1 sequence (P25024 1-350): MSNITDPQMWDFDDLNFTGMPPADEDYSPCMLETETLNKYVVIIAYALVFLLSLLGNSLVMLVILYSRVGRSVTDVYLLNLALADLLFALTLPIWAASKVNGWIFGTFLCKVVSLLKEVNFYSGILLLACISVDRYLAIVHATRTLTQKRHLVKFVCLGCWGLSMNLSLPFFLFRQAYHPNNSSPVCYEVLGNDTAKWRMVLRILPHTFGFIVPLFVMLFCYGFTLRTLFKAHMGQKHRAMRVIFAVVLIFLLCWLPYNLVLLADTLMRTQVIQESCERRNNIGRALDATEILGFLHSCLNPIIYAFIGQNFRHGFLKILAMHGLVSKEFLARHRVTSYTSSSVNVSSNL
# Experimental: For each well of a 96 well plate, a reaction mixture of 10 μg hCXCR1-CHO overexpressing membranes (Biosignal) and 200 μg/well WGA-SPA beads (Amersham) in 100 μl was prepared in CXCR1 assay buffer (25 mM HEPES, pH 7.8, 2 mM CaCl2, 1 mM MgCl2, 125 mM NaCl, 0.1% BSA) (Sigma). A 0.4 nM stock of ligand, [125I]-IL-8 (NEN) was prepared in the CXCR1 assay buffer. 20× stock solutions of test compounds were prepared in DMSO (Sigma). […] The above solutions were added to a 96-well assay plate (PerkinElmer) as follows: 10 μl test compound or DMSO, 40 μl CXCR1 assay buffer or IL-8 stock, 100 μl of reaction mixture, 50 μl of ligand stock (Final [Ligand]=0.1 nM).
# For each 50 μl reaction, a working stock of 0.25 μg/μl hCXCR1-CHO over-expressing membranes with a specific activity of 0.05 pmol/mg (Biosignal Packard) and 25 μg/μl WGA-SPA beads (Perkin Elmer Life Sciences) was prepared in CXCR1 assay buffer (25 mM HEPES, pH 7.8, 0.1 mM CaCl2, 1 mM MgCl2, 100 mM NaCl) (Sigma). This mixture was incubated on ice for 30 minutes and then centrifuged at 2500 rpm for 5 minutes. The beads and membranes were resuspended in CXCR1 assay buffer to the same concentrations as in the original mixture. […] The assay plates were incubated for 4 hours before cpm/well were determined in a Microbeta Trilux counter (Perkin Elmer Life Sciences). IC50 values were quantified using nonlinear regression analysis in GraphPad Prism. […]
# [2] = molecular target: T2, hCXCR2 (Homo sapiens, UniProt P25025); assay: CXCR2 SPA assay ([125I]-IL-8 binding, hCXCR2-CHO membranes; incl. alternative 50 μl and 200 μl protocols)
# T2 construct: purchased Biosignal / Biosignal Packard; host or cells: CHO cells (membranes)
# T2 sequence (P25025 1-360): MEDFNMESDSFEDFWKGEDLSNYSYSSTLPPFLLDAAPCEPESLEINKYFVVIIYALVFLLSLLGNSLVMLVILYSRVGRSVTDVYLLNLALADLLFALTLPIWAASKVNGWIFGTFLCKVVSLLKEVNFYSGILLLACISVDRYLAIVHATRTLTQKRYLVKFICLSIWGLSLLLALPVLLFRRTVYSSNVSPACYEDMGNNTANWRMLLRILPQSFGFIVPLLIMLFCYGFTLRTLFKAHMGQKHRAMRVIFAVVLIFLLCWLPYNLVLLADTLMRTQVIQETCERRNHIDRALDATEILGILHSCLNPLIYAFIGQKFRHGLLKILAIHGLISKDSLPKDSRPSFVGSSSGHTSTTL
# Experimental: For each well of a 96 well plate, a reaction mixture of 4 μg hCXCR2-CHO overexpressing membranes (Biosignal) and 200 μg/well WGA-SPA beads (Amersham) in 100 μl was prepared in CXCR2 assay buffer (25 mM HEPES, pH 7.4, 2 mM CaCl2, 1 mM MgCl2). A 0.4 nM stock of ligand, [^125I]-IL-8 (NEN), was prepared in the CXCR2 assay buffer. 20× stock solutions of test compounds were prepared in DMSO (Sigma). A 6× stock solution of GRO-α (R&D) was prepared in CXCR2 assay buffer. […]
# For each 50 μl reaction, a working stock of 0.031 μg/μl hCXCR2-CHO over-expressing membranes with a specific activity of 0.4 pmol/mg (Biosignal Packard) and 2.5 μg/μl WGA-SPA beads (Perkin Elmer Life Sciences) was prepared in CXCR2 assay buffer (25 mM HEPES, pH 7.4, 2.0 mM CaCl2, 1 mM MgCl2) (Sigma). […] The assay plates were incubated for 2 hours before cpm/well were determined in a Microbeta Trilux counter (Perkin Elmer Life Sciences). IC50 values were quantified using nonlinear regression analysis in GraphPad Prism. […]
# For each 200 μl reaction, a working stock of 0.02 μg/μl hCXCR2—CHO over-expressing membranes with a specific activity of 0.6 pmol/mg (Biosignal Packard) and 2 μg/μl WGA-SPA beads (Perkin Elmer Life Sciences) was prepared in CXCR2 assay buffer (25 mM HEPES, pH 7.4, 2.0 mM CaCl2, 1 mM MgCl2) (Sigma). […] IC50 values were quantified using nonlinear regression analysis in GraphPad Prism.
# [3] = molecular target: T3, CCR7 (Homo sapiens, UniProt P32248); assay: CCR7 [35S]GTPγS exchange assay (SPA, Ba/F3-CCR7 membranes, 2 nM MIP-3); type: biochemical
# T3 construct: expressed in transfected cells; host or cells: Ba/F3 cells (membranes prepared in house)
# T3 sequence (P32248 25-378): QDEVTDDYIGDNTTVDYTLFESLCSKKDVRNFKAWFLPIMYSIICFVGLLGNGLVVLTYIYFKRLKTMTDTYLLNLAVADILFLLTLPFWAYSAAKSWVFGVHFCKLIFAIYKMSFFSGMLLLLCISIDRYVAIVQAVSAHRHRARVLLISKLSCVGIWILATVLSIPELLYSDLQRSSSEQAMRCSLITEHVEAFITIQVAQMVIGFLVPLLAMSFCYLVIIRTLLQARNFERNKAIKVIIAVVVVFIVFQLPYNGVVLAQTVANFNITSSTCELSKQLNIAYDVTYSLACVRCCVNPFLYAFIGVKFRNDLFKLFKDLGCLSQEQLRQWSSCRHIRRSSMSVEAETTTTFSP
# Experimental: CCR7 Membrane Preparation.
# Ba/F3-CCR7 membranes were prepared as previously described (Hipkin et al., J. Biol. Chem., 272, 1997, 13869-76). Cells were pelleted by centrifugation, incubated in homogenization buffer (10 mM Tris-HCl, 5 mM EDTA, 3 mM EGTA, pH 7.6) and 1 μM PMSF for 30 min. on ice. The cells were then lysed with a Dounce homogenizer using stirrer type RZR3 polytron homogenizer (Caframo, Wiarton, Ont.) with 12 strokes at 900 RPM. The intact cells and nuclei were removed by centrifugation at 500×g for 5 min. The cell membranes in the supernatant were then pelleted by centrifugation at 100,000×g for 30 min. The membranes were then resuspended in glygly buffer (20 mM glycylglycine, 1 mM MgCl2, 250 mM sucrose, pH 7.2), aliquoted, quick frozen and stored at −80° C.
# CCR7 [^35S]GTPγS Exchange Assay.
# The exchange of guanosine 5′-[γ-^35S]triphospate ([^35S]GTPγS, triethylammonium salt; specific activity=1250 Ci/mmol; NEN Boston, Mass.) was measured using a scintillation proximity assay (SPA) as previously described (Cox, et. al., Mol. Pharmacol., 59, 2001, 707-15). […] Membrane-bound [^35S]GTPγS was measured using a 1450 Microbeta Trilux counter (Wallac, Gaithersburg, Md.).
Ki [1] [nM],Ki [2] [nM],EC50 [3] [nM],Compound
808,28,,CC[C@@H](Nc1nsnc1Nc1cccc(C(=O)N(C)C)c1O)c1cc(C(C)C)co1 [Example 1]
,14,22,Cc1ccc([C@H](Nc2nsnc2Nc2cccc(C(=O)N(C)C)c2O)C(C)(C)C)o1 [Example 6]
,,880,Cc1ccc([C@H](Nc2nsnc2Nc2cccc(C(=O)N(C)C)c2O)C(C)C)o1 [Example 3]
